Values quoted from earlier work as cited in patent US20180147141A1, “CHEWING GUM COMPOSITION COMPRISING CANNABINOIDS AND GABAPENTIN” (AXIM Biotechnologies, Inc., priority 2016, published 2018).

Test system: GABA receptors
Details: at concentrations at or below 1 millimolar

NCC1(CC(=O)O)CCCCC1 [Gabapentin, 1-(aminomethyl)cyclohexaneacetic acid]
binding to GABA receptors: has not been shown to bind
